From patent US8497245B2, “Trypsin-like serine protease inhibitors, their preparation and use as selective inhibitors of the clotting factors IIa and Xa” (The Medicines Company (Leipzig) GmbH, priority 2010, dated 2013)
Where a name gives a salt, the structure may show the parent alone. Read-outs that look alike come from different tables or passages of the source.

Legend:
Format in all cases: biochemical
[1] = target: T1, Human plasmin (h plasmin) (Homo sapiens, UniProt P00747); test: Inhibition of human plasmin (reference enzyme); conditions: Chromozym PL substrate
T1 construct: purchased Calbiochem
Description: (§1) The inhibitory effect against the individual purified enzymes was determined in analogy to a previously disclosed method (Stürzebecher et al., J. Med. Chem., 40, 3091-3099 (1997)).
(§2) The release of p-nitroaniline (p-NA, the chromogenic product of the proteolytic activity), was determined by change in absorbance at 405 nm. The equilibrium rates were used to calculate the inhibitor/enzyme dissociation constant (Ki values) by parameter fitting in accordance with the rate equation for competitive inhibition using GraFit (version 4 from Erithacus). The results are reported as Ki values (nanomolar) in table 7 and are the average of at least three determinations.
(§3) Dissociation constants were calculated as described herein.

[2] = target: T2, Subcomponent "s" of Human Complement Component 1 (h C1s) (Homo sapiens, UniProt P09871); test: Inhibition of human C1s (reference enzyme); conditions: S-2314 substrate; read-out: Ki h Cls
T2 construct: purchased Calbiochem
T2 sequence (P09871 438-688 limits assumed): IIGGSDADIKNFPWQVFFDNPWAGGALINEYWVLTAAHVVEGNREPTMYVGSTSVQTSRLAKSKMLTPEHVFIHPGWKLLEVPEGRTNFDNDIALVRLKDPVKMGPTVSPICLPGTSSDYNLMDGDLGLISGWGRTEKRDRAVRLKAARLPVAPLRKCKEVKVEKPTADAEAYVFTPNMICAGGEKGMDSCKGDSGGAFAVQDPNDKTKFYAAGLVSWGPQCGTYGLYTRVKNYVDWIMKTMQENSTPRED
T2 sequence (P09871 16-437 partner limits assumed): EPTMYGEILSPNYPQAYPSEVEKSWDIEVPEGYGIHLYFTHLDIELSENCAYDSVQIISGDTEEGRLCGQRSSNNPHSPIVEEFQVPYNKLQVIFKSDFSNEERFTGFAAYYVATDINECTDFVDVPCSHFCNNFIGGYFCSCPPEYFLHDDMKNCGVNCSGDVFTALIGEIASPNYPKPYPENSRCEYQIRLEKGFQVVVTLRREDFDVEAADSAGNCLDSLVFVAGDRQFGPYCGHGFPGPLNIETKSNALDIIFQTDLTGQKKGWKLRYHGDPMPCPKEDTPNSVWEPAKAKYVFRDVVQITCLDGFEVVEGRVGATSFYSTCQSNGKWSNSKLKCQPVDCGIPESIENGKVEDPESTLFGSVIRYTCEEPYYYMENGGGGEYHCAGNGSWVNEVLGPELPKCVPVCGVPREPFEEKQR
Description: as §1, §2, §3

human Factor Xa = target: T3, human Factor Xa (Homo sapiens, UniProt P00742); test: Inhibition constants for human factor Xa, chromogenic substrate assay; conditions: 25° C., Pefachrome FXa substrate, average of at least three determinations; read-out: Ki h FXa
T3 construct: human Factor Xa from Enzyme Research Laboratories; purchased Enzyme Research Laboratories
Description: as §1
(§4) 200 μL of TBS (0.05 M trishydroxymethylaminomethane; 0.154 M NaCl, 2% ethanol, pH 8.0)
as §2

[3] = target: T4, Human urinary kallikrein (h uKK) (Homo sapiens, UniProt P06870); test: Inhibition of human urinary kallikrein (reference enzyme); conditions: S-2266 substrate
T4 construct: purchased Lee Biosolutions
Description: as §1, §2, §3

[4] = target: T5, human factor IIa (human alpha-thrombin) (Homo sapiens, UniProt P00734); test: Inhibition constants for human factor IIa, chromogenic substrate assay; conditions: 25° C., Pefachrome tPA substrate, average of at least three determinations; read-out: Ki h FIIa
T5 construct: human alpha-thrombin from Enzyme Research Laboratories; purchased Enzyme Research Laboratories
Description: as §1, §4, §2

[5] = target: T6, Human plasma kallikrein (h PK) (Homo sapiens, UniProt P03952); test: Inhibition of human plasma kallikrein (reference enzyme); conditions: S2302 substrate
T6 construct: purchased Enzyme Research Laboratories
Description: as §1, §2, §3

[6] = target: T7, Human tissue-type plasminogen activator (h t-PA) (Homo sapiens, UniProt P00750); test: Inhibition of human tissue-type plasminogen activator (reference enzyme)
T7 construct: purchased Boehringer Ingelheim Actilyse
Description: The equilibrium rates were used to calculate the inhibitor/enzyme dissociation constant (Ki values) by parameter fitting in accordance with the rate equation for competitive inhibition using GraFit (version 4 from Erithacus).
as §3

[7] = target: T8, Human urokinase type plasminogen activator (h u-PA) (Homo sapiens, UniProt P00749); test: Inhibition of human urokinase type plasminogen activator (reference enzyme); conditions: H-Glu-Gly-Arg-pNA substrate
T8 construct: purchased MEDAC GmbH Urokinase HS medac
Description: as §1, §2, §3

[8] = target: T9, Human Activated Protein C (h aPC) (Homo sapiens, UniProt P04070); test: Inhibition of human activated protein C (reference enzyme); conditions: Pefachrome PCa substrate
T9 construct: purchased Enzyme Research Laboratories
Description: as §1, §2, §3

[9] = target: T10, Subcomponent "r" of Human Complement Component 1 (h C1r) (Homo sapiens, UniProt P00736); test: Inhibition of human C1r (reference enzyme); conditions: S-2314 substrate; read-out: Ki h Clr
T10 construct: purchased Calbiochem
T10 sequence (P00736 464-705 limits assumed): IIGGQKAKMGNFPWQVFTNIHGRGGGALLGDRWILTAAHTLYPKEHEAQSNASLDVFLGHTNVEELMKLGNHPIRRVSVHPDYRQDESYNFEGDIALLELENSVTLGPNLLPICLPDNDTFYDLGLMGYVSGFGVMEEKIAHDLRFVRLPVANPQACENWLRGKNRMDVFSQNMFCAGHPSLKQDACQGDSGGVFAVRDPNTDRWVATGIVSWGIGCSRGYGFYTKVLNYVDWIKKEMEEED
T10 sequence (P00736 18-463 partner limits assumed): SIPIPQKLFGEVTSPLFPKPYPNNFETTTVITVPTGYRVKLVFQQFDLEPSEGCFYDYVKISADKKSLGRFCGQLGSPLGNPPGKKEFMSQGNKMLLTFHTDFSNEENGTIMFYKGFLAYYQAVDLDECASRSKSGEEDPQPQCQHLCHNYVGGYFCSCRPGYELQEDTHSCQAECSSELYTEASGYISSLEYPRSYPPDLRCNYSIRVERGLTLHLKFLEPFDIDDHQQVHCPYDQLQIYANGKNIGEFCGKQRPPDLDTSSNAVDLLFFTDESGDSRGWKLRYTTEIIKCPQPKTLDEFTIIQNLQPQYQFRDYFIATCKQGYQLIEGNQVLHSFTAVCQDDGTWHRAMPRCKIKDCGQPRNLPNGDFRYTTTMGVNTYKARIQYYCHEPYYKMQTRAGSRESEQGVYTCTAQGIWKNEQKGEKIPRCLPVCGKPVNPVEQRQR
Description: as §1, §2, §3

[10] = Pefachrome tPA substrate, read-out: Ki h t-PA

T9 sequence (P04070 212-450 limits assumed): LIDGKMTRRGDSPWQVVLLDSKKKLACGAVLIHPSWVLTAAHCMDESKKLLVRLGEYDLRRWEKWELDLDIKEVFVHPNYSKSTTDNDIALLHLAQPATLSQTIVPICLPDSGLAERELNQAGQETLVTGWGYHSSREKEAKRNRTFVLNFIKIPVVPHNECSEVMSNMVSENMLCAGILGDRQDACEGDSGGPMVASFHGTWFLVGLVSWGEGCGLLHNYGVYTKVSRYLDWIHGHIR
T9 sequence (P04070 43-197 partner limits assumed): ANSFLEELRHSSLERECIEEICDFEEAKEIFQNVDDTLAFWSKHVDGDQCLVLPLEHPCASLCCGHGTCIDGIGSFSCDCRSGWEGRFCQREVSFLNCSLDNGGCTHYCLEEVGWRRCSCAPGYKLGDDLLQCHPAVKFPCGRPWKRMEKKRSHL
T4 sequence (P06870 25-262): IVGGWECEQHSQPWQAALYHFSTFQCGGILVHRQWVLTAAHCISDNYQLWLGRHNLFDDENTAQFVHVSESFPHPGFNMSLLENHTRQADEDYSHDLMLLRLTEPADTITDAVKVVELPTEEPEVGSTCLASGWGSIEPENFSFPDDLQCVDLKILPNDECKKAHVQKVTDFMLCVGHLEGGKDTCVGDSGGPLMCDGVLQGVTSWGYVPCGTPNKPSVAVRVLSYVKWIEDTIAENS
T7 sequence (P00750 36-562): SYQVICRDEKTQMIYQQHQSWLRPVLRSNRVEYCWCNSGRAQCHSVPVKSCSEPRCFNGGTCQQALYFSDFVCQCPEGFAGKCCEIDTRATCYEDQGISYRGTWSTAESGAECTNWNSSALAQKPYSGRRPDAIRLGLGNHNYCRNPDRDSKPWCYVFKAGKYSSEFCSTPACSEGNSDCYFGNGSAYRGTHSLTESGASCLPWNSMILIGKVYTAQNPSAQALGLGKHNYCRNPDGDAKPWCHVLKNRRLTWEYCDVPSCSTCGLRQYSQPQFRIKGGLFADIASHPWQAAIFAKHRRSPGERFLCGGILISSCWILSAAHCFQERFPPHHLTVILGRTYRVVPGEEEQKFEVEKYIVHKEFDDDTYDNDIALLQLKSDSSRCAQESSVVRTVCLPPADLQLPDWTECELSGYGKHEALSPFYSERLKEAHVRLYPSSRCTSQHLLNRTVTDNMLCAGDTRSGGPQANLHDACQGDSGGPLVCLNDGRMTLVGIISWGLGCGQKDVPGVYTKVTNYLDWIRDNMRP
T6 sequence (P03952 391-638 limits assumed): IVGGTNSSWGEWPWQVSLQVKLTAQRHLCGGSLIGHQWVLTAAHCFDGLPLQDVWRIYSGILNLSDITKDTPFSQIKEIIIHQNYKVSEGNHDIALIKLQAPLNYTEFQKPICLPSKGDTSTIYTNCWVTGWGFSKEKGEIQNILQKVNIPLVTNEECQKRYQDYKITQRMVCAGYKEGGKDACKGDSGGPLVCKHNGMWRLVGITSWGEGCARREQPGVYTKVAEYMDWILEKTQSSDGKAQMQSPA
T6 sequence (P03952 20-390 partner limits assumed): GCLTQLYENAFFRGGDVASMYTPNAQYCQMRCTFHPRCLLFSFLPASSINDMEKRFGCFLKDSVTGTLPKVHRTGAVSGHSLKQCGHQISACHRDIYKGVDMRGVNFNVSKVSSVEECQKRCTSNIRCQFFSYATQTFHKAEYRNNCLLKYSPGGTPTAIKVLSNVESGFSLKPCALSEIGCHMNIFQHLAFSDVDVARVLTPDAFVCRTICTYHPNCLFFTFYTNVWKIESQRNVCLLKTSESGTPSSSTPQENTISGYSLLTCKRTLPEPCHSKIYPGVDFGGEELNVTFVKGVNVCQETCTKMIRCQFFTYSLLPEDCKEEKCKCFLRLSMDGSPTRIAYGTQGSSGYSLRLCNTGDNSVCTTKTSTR
T3 sequence (P00742 235-488 limits assumed): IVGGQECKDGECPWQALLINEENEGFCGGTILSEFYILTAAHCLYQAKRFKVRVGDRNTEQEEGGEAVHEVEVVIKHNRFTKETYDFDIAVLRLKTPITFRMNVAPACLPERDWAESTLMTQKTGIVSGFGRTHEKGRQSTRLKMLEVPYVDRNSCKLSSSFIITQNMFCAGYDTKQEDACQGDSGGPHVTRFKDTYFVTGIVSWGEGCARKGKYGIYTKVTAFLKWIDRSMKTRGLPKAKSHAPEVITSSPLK
T3 sequence (P00742 41-179 partner limits assumed): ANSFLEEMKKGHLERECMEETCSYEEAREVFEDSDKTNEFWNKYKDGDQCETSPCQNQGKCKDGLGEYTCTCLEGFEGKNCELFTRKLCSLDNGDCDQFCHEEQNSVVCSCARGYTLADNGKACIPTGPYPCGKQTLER
T1 sequence (P00747 581-810 limits assumed): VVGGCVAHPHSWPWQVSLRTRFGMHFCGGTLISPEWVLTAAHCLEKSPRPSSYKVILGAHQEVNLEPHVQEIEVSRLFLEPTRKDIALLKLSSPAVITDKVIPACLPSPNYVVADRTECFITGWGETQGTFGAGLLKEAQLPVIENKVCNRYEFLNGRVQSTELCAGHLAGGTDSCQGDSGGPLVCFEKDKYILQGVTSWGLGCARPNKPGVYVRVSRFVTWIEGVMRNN
T1 sequence (P00747 97-580 partner limits assumed): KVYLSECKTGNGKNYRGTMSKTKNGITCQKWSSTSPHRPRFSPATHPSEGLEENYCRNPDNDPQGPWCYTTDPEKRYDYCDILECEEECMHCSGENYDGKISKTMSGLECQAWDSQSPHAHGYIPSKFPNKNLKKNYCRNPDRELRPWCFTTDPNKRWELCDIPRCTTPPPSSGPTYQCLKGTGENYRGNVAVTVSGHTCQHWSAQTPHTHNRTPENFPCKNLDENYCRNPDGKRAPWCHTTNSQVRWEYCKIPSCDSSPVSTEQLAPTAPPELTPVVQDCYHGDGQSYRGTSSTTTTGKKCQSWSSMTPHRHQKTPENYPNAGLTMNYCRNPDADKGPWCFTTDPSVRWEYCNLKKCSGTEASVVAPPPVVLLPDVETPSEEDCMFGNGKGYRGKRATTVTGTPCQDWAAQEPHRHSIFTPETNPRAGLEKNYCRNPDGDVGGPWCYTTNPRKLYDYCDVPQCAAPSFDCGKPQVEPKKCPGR

Ki [1] | Ki [2] | Ki (human Factor Xa) | Ki [3] | Ki [4] | Ki [5] | Ki [6] | Ki [7] | Ki [8] | Ki [9] | Ki [6, 10] | Compound
> 100 µM | > 20 µM | 0.023 µM | > 50 µM | 0.003 µM | 5.31 µM | > 50 µM | > 100 µM | > 10 µM | > 100 µM |  | CN(C(=O)C[C@@H](NS(=O)(=O)Cc1ccccc1)C(=O)N1CCC[C@H]1C(=O)NCc1cc(Cl)ccc1CN)C1CCNCC1 [Compound 2.3]
> 40 µM | > 80 µM | 0.0017 µM | > 10 µM | 0.0097 µM | 5.81 µM |  | > 20 µM | > 100 µM | > 30 µM | > 80 µM | NCc1ccc(Cl)cc1CNC(=O)[C@@H]1CCN1C(=O)[C@@H](CCC(=O)N1CCOCC1)NS(=O)(=O)Cc1ccccc1 [Compound 2.43]
> 28 µM | > 80 µM | 0.0011 µM | > 60 µM | 0.00043 µM | 1.86 µM |  | > 40 µM | > 100 µM | > 200 µM | > 20 µM | NCc1ccc(Cl)cc1CNC(=O)[C@@H]1CCCN1C(=O)[C@@H](CCC(=O)N1CCOCC1)NS(=O)(=O)Cc1ccccc1 [Compound 2.1, Bzls-D-Glu(morpholino)-L-Pro-Amb(2-AMe-5-Cl)×1 TFA]
> 10 µM | > 100 µM | 0.023 µM | > 10 µM | 0.0031 µM | 4.46 µM |  | > 50 µM | > 90 µM | > 50 µM | > 100 µM | CC(=O)N1CCC(N(C)C(=O)C[C@@H](NS(=O)(=O)Cc2ccccc2)C(=O)N2CCC[C@H]2C(=O)NCc2cc(Cl)ccc2CN)CC1 [Compound 2.2]
> 10 µM | > 20 µM | 0.0011 µM | > 100 µM | 0.0009 µM | 0.83 µM |  | > 100 µM | > 20 µM | > 20 µM | > 10 µM | NCc1ccc(Cl)cc1CNC(=O)[C@@H]1CCCN1C(=O)[C@@H](CC(=O)N1CC[C@H](O)C1)NS(=O)(=O)Cc1ccccc1 [Compound 2.10]
> 5 µM | > 80 µM | 0.0086 µM | > 20 µM | 0.00099 µM | 0.432 µM |  | > 40 µM | > 25 µM | > 30 µM | > 20 µM | NCc1ccc(Cl)cc1CNC(=O)CC[C@@H](NS(=O)(=O)Cc1ccccc1)C(=O)N1CCC[C@H]1C(=O)NCc1cc(Cl)ccc1CN [Compound 2.30]
1.99 µM | > 70 µM | 0.00032 µM | > 50 µM | 0.0067 µM | 0.39 µM |  | > 100 µM | 6.7 µM | > 40 µM | 4.8 µM | N[C@H]1C[C@@H](C(=O)NCc2cc(Cl)ccc2-n2cnnn2)N(C(=O)[C@@H](CCC(=O)N2CCOCC2)NS(=O)(=O)Cc2ccccc2)C1 [Compound 2.23]
> 25 µM | > 30 µM | 0.014 µM | > 20 µM | 0.0029 µM | 1.69 µM |  | > 50 µM | > 25 µM | > 100 µM | > 100 µM | NCc1ccc(Cl)cc1CNC(=O)[C@@H]1CCCN1C(=O)[C@@H](CC(=O)N1CC[C@H](N)C1)NS(=O)(=O)Cc1ccccc1 [Compound 2.12]
> 10 µM | > 50 µM | 1.32 µM | > 20 µM | 0.0122 µM | > 50 µM |  | > 50 µM | > 40 µM | > 100 µM | > 50 µM | NCc1ccc(Cl)cc1CNC(=O)[C@@H]1CCCN1C(=O)[C@@H](CC(=O)O)NS(=O)(=O)Cc1ccccc1 [Compound 2.46]
> 20 µM | > 50 µM | 0.0088 µM | > 40 µM | 0.0014 µM | 6.06 µM |  | > 50 µM | > 30 µM | > 100 µM | > 20 µM | NCc1ccc(Cl)cc1CNC(=O)[C@@H]1CCCN1C(=O)[C@@H](CCC(=O)N1CCOCC1)NC(=O)OCc1ccccc1 [Compound 2.33]
> 3 µM | > 15 µM | 0.00079 µM | > 50 µM | 0.0044 µM | 0.351 µM |  | > 20 µM | > 100 µM | > 100 µM | 1 µM | NCc1ccc(Cl)cc1CNC(=O)[C@@H]1C[C@H](N)CN1C(=O)[C@@H](CC(=O)N1CCNCC1)NS(=O)(=O)Cc1ccccc1 [Compound 2.35]
> 10 µM | > 100 µM | 0.018 µM | > 100 µM | 0.0008 µM | 1.65 µM |  | > 100 µM | > 50 µM | > 100 µM | > 100 µM | CN(C(=O)CC[C@@H](NS(=O)(=O)Cc1ccccc1)C(=O)N1CCC[C@H]1C(=O)NCc1cc(Cl)ccc1CN)C1CCNCC1 [Compound 2.27]
> 5 µM | > 50 µM | 0.0015 µM | > 50 µM | 0.0003 µM | 0.417 µM |  | > 100 µM | > 100 µM | > 10 µM | > 50 µM | CN(CC1CCNCC1)C(=O)C[C@@H](NS(=O)(=O)Cc1ccccc1)C(=O)N1CCC[C@H]1C(=O)NCc1cc(Cl)ccc1CN [Compound 2.16]
> 20 µM | > 100 µM | 0.033 µM | > 10 µM | 0.00015 µM | 3.06 µM |  | > 100 µM | > 100 µM | > 100 µM | > 50 µM | NCc1ccc(Cl)cc1CNC(=O)[C@@H]1CCCN1C(=O)[C@@H](CCC(=O)N1CCC(N)CC1)NS(=O)(=O)Cc1ccccc1 [Compound 2.32]
10.8 µM | > 50 µM | 0.0053 µM | > 100 µM | 0.159 µM | 1.2 µM |  | > 100 µM | > 50 µM | > 100 µM | > 20 µM | O=C(NCc1cc(Cl)ccc1-n1cnnn1)[C@@H]1C[C@H](O)CN1C(=O)[C@@H](CCC(=O)N1CCOCC1)NS(=O)(=O)Cc1ccccc1 [Compound 2.21]
